{
  "source": "patent US20110038856A1",
  "about": "“METHODS OF TREATING NEOPLASTIC, AUTOIMMUNE AND INFLAMMATORY DISEASES” (Seattle Genetics, Inc., priority 2006, published 2011)",
  "key": {"HEL 92.1.7 cells": {"test_system": "HEL 92.1.7 cells", "experiment": "Complement-dependent cytotoxicity (CDC) on MDR+ CD33-positive AML cell line", "assay_type": "cell-based, human", "settings": "HEL 92.1.7 cells preincubated with drug for two hours prior to anti-CD33 Ab; FIG. 4", "procedure": "The purpose of this study was to determine whether the cytotoxic effects of an anti-CD33 antibody (HuM195) on AML cells could be enhanced by combination treatment with chemotherapeutic drugs. An MDR^+, CD33-positive AML cell line (HEL 92.1.7) was either untreated or preincubated with the indicated concentrations of thalidomide or 5-azacytidine for two hours prior to exposure to the anti-CD33 Ab. Cytotoxic activity was measured using a complement-dependent cytotoxicity (CDC) activity."}, "HL-60 cells": {"test_system": "HL-60 cells", "experiment": "Mouse AML model, HL-60 cells injected intravenously", "assay_type": "in vivo, mice", "procedure": "Mice were implanted with an AML cell line, HL-60, as follows: 5 million HL-60 cells were injected intravenously. The mice were treated with lintuzumab (10 mg/kg, q4d×4, ip), cytarabine (1 mg/kg, 5 mg/kg or 25 mg/kg, q1d×10, or 50 mg/kg or 100 mg/kg, q2d×5, ip) or lintuzumab with cytarabine (dosed as described previously). Treatment began on day one.\nTo confirm the data of the in vitro study, mice were implanted with an AML cell line, HL-60, as follows: 5 million HL-60 cells were injected intravenously. […] Treatment began on day one."}, "target cells": {"test_system": "target cells", "experiment": "ADCC activity, standard 51Cr release assay with NK cells", "assay_type": "cell-based", "settings": "NK cells pre-treated for 2 to 3 h with drug prior to addition to target cells; FIG. 23", "procedure": "Viable NK cells were pre-treated for 2 to 3 h with lenalidomide or thalidomide (as described in FIG. 23) prior to addition to target cells."}, "[1]": {"experiment": "Effector function (ADCC or CDC activity) of deglycosylated antibody", "assay_type": "cell-based", "settings": "data not shown; unlike the intact antibody"}, "[2]": {"test_system": "primary human macrophages", "experiment": "Macrophage migration in response to chemoattractants (CytoSelect Cell Migration Assay)", "assay_type": "cell-based", "settings": "10% human serum or 20% conditioned media from RPMI 8226 cells; p<0.05; FIG. 21", "procedure": "The migration of macrophages in response to challenge with plating media containing 10% human serum, 20% conditioned tumor cell media, or 50 ng/ml TGF-β, VEGF, TNF-α, or IFN-γ was evaluated using the CytoSelect Cell Migration Assay (Cell Biolabs, San Diego, Calif.). […] The study was stopped 18 hours later and migration was evaluated after dissociation of the cells from the membrane followed by detection with Cyquant GR dye.\nThe migration of macrophages in response to challenge with plating media containing 10% human serum or 20% conditioned tumor cell media was evaluated using the CytoSelect Cell Migration Assay (Cell Biolabs, San Diego, Calif.). […] The studies were stopped 18 h later and migration was evaluated after dissociation of the cells from the membrane followed by detection with Cyquant GR dye."}, "CD33 [3]": {"molecular_target": "T1, CD33 (Homo sapiens, UniProt P20138)", "T1 sequence (P20138 18-364)": "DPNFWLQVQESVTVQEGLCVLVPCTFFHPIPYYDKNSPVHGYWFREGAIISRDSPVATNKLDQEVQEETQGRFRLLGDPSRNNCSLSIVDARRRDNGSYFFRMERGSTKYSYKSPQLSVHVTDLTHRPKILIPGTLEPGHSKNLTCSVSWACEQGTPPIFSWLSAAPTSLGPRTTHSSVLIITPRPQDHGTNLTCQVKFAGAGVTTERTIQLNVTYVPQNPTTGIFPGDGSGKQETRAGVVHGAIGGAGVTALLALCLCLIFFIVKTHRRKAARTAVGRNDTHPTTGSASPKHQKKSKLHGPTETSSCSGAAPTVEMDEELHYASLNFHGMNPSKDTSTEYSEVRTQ", "experiment": "Binding of deglycosylated SGN-33 to CD33 by ELISA", "settings": "data not shown"}, "CD33 [4]": {"molecular_target": "T1, CD33", "experiment": "SGN-33 signaling in HL-60 cells, primary human monocytes and macrophages (CD33 immunoprecipitation, Western blot)", "assay_type": "cell-based", "parameters": "endogenous in cells; host or cells: HL-60 (ATCC); primary human CD14+ monocytes (Cambrex); macrophages derived from human PBMCs", "settings": "HL-60 and monocytes; 30 minutes; FIG. 16", "procedure": "Deglycosylation was confirmed by CE-SDS. […] Cell lysates were prepared and CD33 immunoprecipitated using an anti-CD33 rabbit polyclonal antibody (Santa Cruz Biotechnology, Santa Cruz, Calif.) prior to SDS PAGE gel electrophoresis. Western blot analyses of these samples were performed using the 4G10 phosphotyrosine antibody (Upstate Biotechnology, Temucula, Calif.), anti-CD33 antibody (NovoCastra, Norwell, Mass.), and anti-SHP-1 antibody (Calbiochem, San Diego, Calif.). Control lysate for SHP-1 was prepared from a B cell lymphoma cell line."}},
  "data": [
    {"molecule": "Nc1ncn([C@@H]2O[C@H](CO)[C@@H](O)[C@H]2O)c(=O)n1", "note": "[5-azacytidine]", "values": [
      {"measurement": "sensitivity of MDR+ AML cells to HuM195-mediated CDC activity", "setting": "HEL 92.1.7 cells", "value": "enhanced the sensitivity"}
    ]},
    {"molecule": "Nc1ccn([C@@H]2O[C@H](CO)[C@@H](O)[C@@H]2O)c(=O)n1", "note": "[cytarabine, reference compound]", "values": [
      {"measurement": "percent survival rates compared to untreated controls", "setting": "HL-60 cells; low doses of cytarabine alone, ip, FIG. 22", "value": "increasing percent survival rates"}
    ]},
    {"molecule": "Nc1cccc2c1CN(C1CCC(=O)NC1=O)C2=O", "note": "(stereo not shown) [lenalidomide, reference compound]", "values": [
      {"measurement": "day by which mice were removed from study due to tumor progression", "setting": "HL-60 cells; lenalidomide 25 mg/kg, qd×3, ip alone, control mice about day 60, FIG. 24", "value": "~90", "unit": "days"},
      {"measurement": "SGN-33 mediated ADCC", "setting": "target cells", "value": "enhance SGN-33 mediated ADCC"}
    ]},
    {"molecule": "O=C1CCC(N2C(=O)c3ccccc3C2=O)C(=O)N1", "note": "(stereo not shown) [thalidomide]", "values": [
      {"measurement": "SGN-33 mediated ADCC", "setting": "target cells", "value": "enhance SGN-33 mediated ADCC"},
      {"measurement": "sensitivity of MDR+ AML cells to HuM195-mediated CDC activity", "setting": "HEL 92.1.7 cells", "value": "enhanced the sensitivity"}
    ]},
    {"molecule": "deglycosylated SGN-33: SGN-33 treated with PN-glycosidase F; does not interact with Fc receptors", "values": [
      {"measurement": "effector function, including ADCC or CDC activity", "setting": "[1]", "value": "did not mediate effector function"},
      {"measurement": "macrophage migration", "setting": "[2]", "value": "significantly reduced"},
      {"measurement": "binding to CD33", "setting": "CD33 [3]", "value": "confirmed"},
      {"measurement": "recruitment of SHP-1 to the CD33 complex", "setting": "CD33 [4]", "value": "resulted in recruitment of SHP-1"}
    ]}
  ]
}
